# Reference: patent publication US20180185431A1, “HOVENIAE SEMEN CUM FRUCTRUS EXTRACT COMPOSITIONS AND METHOD OF USE” (ARIBIO Co., Ltd., priority 2016, published 2018)
# What was measured:
# HepG2 cells = experiment: MTT assay, tBHP-induced cytotoxicity (cytoprotection); format: cell-based, human; conditions: SFN 30 M pretreatment, 150 M tBHP
# [1] = test system: ARE (Nrf2), pGL4.37 transfected HepG2 cells; experiment: ARE-driven luciferase reporter gene assay (Nrf2 transactivation); format: cell-based, human; conditions: SFN 30 M
# Protocol: To examine the possibility that ARE activation by Nrf2 is associated with HSCF extracts-mediated cytoprotection, pGL4.37 tranfected HepG2 cells (5×10^5 cells/well) were plated in 12-well overnight, serum starved for 12 hrs, and then subsequently exposed to 30-1000 μg/ml HSCF extracts for 18 hrs. ARE-driven luciferase activity was measured in the cell treated with HSCF extracts. […] The relative ARE-luciferase activities were 1.39±0.88, 1.62±1.08, 1.91±1.22, and 3.25±0.88 in […] HSCF extracts treated cells, respectively (FIG. 3).
# ARE-driven reporter gene construct, pGL4.37 [luc2P/ARE/Hygro] was obtained from promega (Madison, Wis., USA). HepG2 cells were stably transfected with pGL4.37 plasmid using Fugene HD (Promega, Madison, Wis., USA) according to manufacturer's instruction and 80 µg/mL hygromycin was added to select the resistant colonies. The resistant colonies were pooled and used for reporter gene analysis. […] Luciferase activities in cell lysates were measured by adding luciferase assay reagent (Promega, Madison, Wis., USA) using […] automatic multimode reader (Model Infinite 200 PRO; Tecan, Männedorf, Switzerland). The relative luciferase activity was calculated as the relative change to protein content determined by bicinchoninic acid (BCA) method.
structure (smiles),measurement,setting,value
"C[S+]([O-])CCCCN=C=S (centres unmarked) [SFN, Sulforaphane]",protection from tBHP-mediated cell death,HepG2 cells,significantly protected from tBHP-mediated cell death
same,ARE-driven luciferase activity,[1],significantly increased luciferase activity
